Laboratory results published in US10501518B2 (priority 2013, dated 2019).
Read-outs that look alike come from different tables or passages of the source. Starred links: 1 amine or outer side, 2 acyl side, 3 side chain; linkers in the order of their positions; H or OH if unused. Non-standard residues stand in square brackets, D forms with d. Residues, ends and D or L forms follow the SMILES beside them. *: point of attachment. NH(1S,2S-2-CONH2-cPent) = NC(=O)[C@H]1CCC[C@@H]1N*; X12 = O=C([C@H]1CCC[C@@H]1N[*:1])[*:2]; X13 = O=C([C@H]1CNC[C@@H]1N[*:1])[*:2]; ACPC(1S,2S) = N[C@H]1CCC[C@@H]1C(=O)*; Aib = CC(C)(N)C(=O)O

How the values were obtained:
Type in all cases: cell-based
PTHR = target: T1, PTHR (Homo sapiens, UniProt Q03431); assay: cAMP induction potency, N-terminal modifications and cyclic constraints (Tables 9, 10, 13); conditions: Table 9
T1 construct: expressed in transfected cells
T1 sequence (Q03431 27-593): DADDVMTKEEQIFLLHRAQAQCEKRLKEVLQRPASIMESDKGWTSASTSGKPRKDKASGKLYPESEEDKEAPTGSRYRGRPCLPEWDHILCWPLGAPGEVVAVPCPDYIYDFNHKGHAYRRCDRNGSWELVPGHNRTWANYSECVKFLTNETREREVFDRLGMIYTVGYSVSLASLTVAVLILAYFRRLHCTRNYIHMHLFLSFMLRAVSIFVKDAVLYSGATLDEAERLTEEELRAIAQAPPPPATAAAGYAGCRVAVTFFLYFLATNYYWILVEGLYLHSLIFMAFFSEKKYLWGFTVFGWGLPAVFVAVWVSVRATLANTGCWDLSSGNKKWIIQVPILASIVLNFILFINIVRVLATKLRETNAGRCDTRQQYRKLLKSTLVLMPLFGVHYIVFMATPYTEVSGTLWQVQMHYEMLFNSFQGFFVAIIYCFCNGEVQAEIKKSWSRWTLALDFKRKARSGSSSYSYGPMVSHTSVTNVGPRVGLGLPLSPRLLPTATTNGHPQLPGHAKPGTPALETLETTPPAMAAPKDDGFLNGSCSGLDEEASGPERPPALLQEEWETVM

WT rat PTHR-1 = target: T2, WT rat PTHR-1 (Rattus norvegicus, UniProt P25961); assay: cAMP GloSensor dose-response in GR-35 cells expressing rat PTHR-1; conditions: Table 7; GR-35 cells, 12-16 minutes after ligand addition; mean ± SEM
T2 construct: expressed in transfected cells
T2 sequence (P25961 27-591): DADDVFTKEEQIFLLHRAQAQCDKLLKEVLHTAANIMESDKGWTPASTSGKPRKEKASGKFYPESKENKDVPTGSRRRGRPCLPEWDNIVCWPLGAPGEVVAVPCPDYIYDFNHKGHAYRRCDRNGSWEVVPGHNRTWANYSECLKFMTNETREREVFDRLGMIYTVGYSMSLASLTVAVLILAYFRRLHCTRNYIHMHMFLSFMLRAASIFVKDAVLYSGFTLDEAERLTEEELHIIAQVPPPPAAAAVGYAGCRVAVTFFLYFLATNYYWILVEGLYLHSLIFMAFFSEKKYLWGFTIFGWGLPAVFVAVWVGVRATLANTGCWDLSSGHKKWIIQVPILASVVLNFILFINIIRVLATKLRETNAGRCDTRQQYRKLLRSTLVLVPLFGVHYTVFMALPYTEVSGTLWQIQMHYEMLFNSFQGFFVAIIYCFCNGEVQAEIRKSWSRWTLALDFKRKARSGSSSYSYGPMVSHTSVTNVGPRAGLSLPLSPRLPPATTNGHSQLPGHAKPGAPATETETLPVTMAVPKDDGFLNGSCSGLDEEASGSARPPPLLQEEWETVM
Protocol: FIGS. 9A, 9B, and 9C constitute a series of graphs depicting cAMP responses in GR-35 cells expressing rat PTHR-1-WT. […] Data are means (±SEM) of n>4 experiments, each performed in duplicate.
(§1) For cAMP dose-response assays, monolayers of confluent HEK 293 cells were pre-incubated with buffer containing d-luciferin (0.5 mM) in 96 well plates at room temperature until a stable baseline level of luminescence was established (30 min). Varying concentrations of agonist were then added, and the time course of luminescence response was recorded using a Perkin Elmer plate reader following α/β-peptide addition.

WT human PTHR-1 = target: T3, WT human PTHR-1 (Homo sapiens, UniProt Q03431); assay: cAMP GloSensor dose-response in GP-2.3 cells expressing human PTHR-1; conditions: for cAMP (hPTHR-1) Max: Table 1, luminescence counts per second relative to PTH(1-34); for cAMP (hPTHR-1) Max / Max: 12-16 minutes after ligand addition; for Max: Table 6, GP-2.3 cells, mean ± SEM
T3 construct: bioactivity of the resulting compound in full-length hPTHR-1 and a truncated version; expressed in transfected cells
T3 sequence (Q03431 27-593): T1 sequence (Q03431 27-593)
Protocol: FIGS. 8A, 8B, and 8C constitute a series of graphs depicting cAMP responses in GP-2.3 cells expressing wild-type human parathyroid hormone receptor 1 (PTHR-1-WT). […] Data are means (±SEM) of n>4 experiments, each performed in duplicate.
as §1

Row | EC50 (WT human PTHR-1; read-out: cAMP EC50) [nM] | Compound | Max (WT rat PTHR-1) | cAMP (hPTHR-1) Max (WT human PTHR-1) | Max (WT human PTHR-1) | also measured
1 | – | XVSEXQXMHNLGKWLNSMERVEWLRKKLQDVHNF-NH2 [D6_ACPC(1,5,7)] | – | – | – | Fold PTH (PTHR): 2,045
2 | – | CC[C@H](C)[C@H](NC(=O)[C@H](CCC(=O)O)NC(=O)[C@H](CO)NC(=O)[C@@H](NC(=O)[C@@H](N)CO)C(C)C)C(=O)N[C@@H](CCC(N)=O)C(=O)N[C@@H](CC(C)C)C(=O)N[C@@H](CCSC)C(=O)N[C@@H](Cc1c[nH]cn1)C(=O)N[C@@H](CC(N)=O)C(=O)N[C@@H](CC(C)C)C(=O)NCC(=O)N[C@@H](CCCCN)C(=O)N[C@@H](Cc1c[nH]cn1)C(=O)N[C@@H](CC(C)C)C(=O)N[C@@H](CC(N)=O)C(=O)N[C@@H](CO)C(=O)N[C@@H](CCSC)C(=O)N[C@@H](CCC(=O)O)C(=O)N[C@@H](CCCNC(=N)N)C(=O)N[C@H](C(=O)N[C@@H](CCC(=O)O)C(=O)N[C@H](CC(=O)N[C@@H](CC(C)C)C(=O)N[C@@H](CCCNC(=N)N)C(=O)N[C@@H](CCCCN)C(=O)N[C@@H](CCCCN)CC(=O)N[C@@H](CC(C)C)C(=O)N[C@@H](CCC(N)=O)C(=O)N[C@@H](CC(=O)O)C(=O)N[C@H](CC(=O)N[C@@H](Cc1c[nH]cn1)C(=O)N[C@@H](CC(N)=O)C(=O)N[C@@H](Cc1ccccc1)C(N)=O)C(C)C)Cc1c[nH]c2ccccc12)C(C)C [A3] | 74 ± 101 luminescence counts per second × 10−3 | 1.07 | 232 ± 15 luminescence counts per second × 10^−3 | agonist activity at hPTHR-1 (cAMP response), in words (WT human PTHR-1; maximum cAMP response compared with PTH(1-34)): full agonists of hPTHR-1
3 | – | CC[C@H](C)[C@H](NC(=O)[C@H]1CCC[C@@H]1NC(=O)[C@H](CO)NC(=O)[C@@H](NC(=O)[C@@H](N)CO)C(C)C)C(=O)N[C@@H](CCC(N)=O)C(=O)N[C@@H](CC(C)C)C(=O)N[C@@H](CCSC)C(=O)N[C@@H](Cc1c[nH]cn1)C(=O)N[C@@H](CC(N)=O)C(=O)N[C@@H](CC(C)C)C(=O)NCC(=O)N[C@@H](CCCCN)C(=O)N[C@@H](Cc1c[nH]cn1)C(=O)N[C@@H](CC(C)C)C(=O)N[C@@H](CC(N)=O)C(=O)N[C@@H](CO)C(=O)N[C@@H](CCSC)C(=O)N[C@@H](CCC(=O)O)C(=O)N[C@@H](CCCNC(=N)N)C(=O)N[C@H](C(=O)N[C@@H](CCC(=O)O)C(=O)N[C@@H](Cc1c[nH]c2ccccc12)C(=O)N[C@@H](CC(C)C)C(=O)N[C@@H](CCCNC(=N)N)C(=O)N[C@@H](CCCCN)C(=O)N[C@@H](CCCCN)C(=O)N[C@@H](CC(C)C)C(=O)N[C@@H](CCC(N)=O)C(=O)N[C@@H](CC(=O)O)C(=O)N[C@H](C(=O)N[C@@H](Cc1c[nH]cn1)C(=O)N[C@@H](CC(N)=O)C(=O)N[C@@H](Cc1ccccc1)C(N)=O)C(C)C)C(C)C [ACPC(4)] (H-SVS[X12]IQLMHNLGKHLNSMERVEWLRKKLQDVHNF-NH2; N-terminus assumed) | – | – | – | hPTHR1 EC50, nM (Means ± SEM) (WT human PTHR-1; Table 8, cAMP-inducing potency, N-terminal modifications): No activity
4 | 0.26 | CC[C@H](C)[C@H](NC(=O)[C@H](CO)NC(=O)[C@H](CCCCN)NC(=O)CNC(=O)[C@H](CCCCN)NC(=O)[C@H](CC(=O)O)NC(=O)[C@H](Cc1c[nH]cn1)NC(=O)[C@H](CC(C)C)NC(=O)[C@H]1CCC[C@@H]1NC(=O)[C@H](CCC(N)=O)NC(=O)[C@H]1CCC[C@@H]1NC(=O)[C@H](CCC(=O)O)NC(=O)[C@H](CO)NC(=O)[C@@H](NC(=O)[C@H]1CCC[C@@H]1N)C(C)C)C(=O)N[C@@H](CCC(N)=O)C(=O)N[C@@H](CC(=O)O)C(=O)N[C@@H](CC(C)C)C(=O)N[C@@H](CCCNC(=N)N)C(=O)N[C@@H](CCCNC(=N)N)C(=O)N[C@@H](CCCNC(=N)N)C(=O)N[C@@H](CCC(=O)O)C(=O)N[C@@H](CC(C)C)C(=O)N[C@@H](CC(C)C)C(=O)N[C@@H](CCC(=O)O)C(=O)N[C@@H](CCCCN)C(=O)N[C@@H](CC(C)C)C(=O)N[C@@H](CC(C)C)C(=O)NC(C)(C)C(=O)N[C@@H](CCCCN)C(=O)N[C@@H](CC(C)C)C(=O)N[C@@H](Cc1c[nH]cn1)C(=O)N[C@H](C(=O)N[C@@H](C)C(N)=O)[C@@H](C)O [BA058 ACPC(1,5,7), XVSEXQXLHDKGKSIQDLRRRELLEKLLUKLHTA-NH2] ({ACPC(1S,2S)}-VSE[X12]Q[X12]LHDKGKSIQDLRRRELLEKLL[Aib]KLHTA-NH2; N-terminus assumed) | – | – | – | –
5 | – | CC[C@H](C)[C@H](NC(=O)[C@H](CCC(=O)O)NC(=O)[C@H](CO)NC(=O)[C@@H](NC(=O)[C@@H](N)CO)C(C)C)C(=O)N[C@@H](CCC(N)=O)C(=O)N[C@@H](CC(C)C)C(=O)N[C@@H](CCSC)C(=O)N[C@@H](Cc1c[nH]cn1)C(=O)N[C@@H](CC(N)=O)C(=O)N[C@@H](CC(C)C)C(=O)NCC(=O)N[C@@H](CCCCN)C(=O)N[C@@H](Cc1c[nH]cn1)C(=O)N[C@H](CC(=O)N[C@@H](CC(N)=O)C(=O)N[C@@H](CO)C(=O)N[C@@H](CCSC)C(=O)N[C@@H](CCC(=O)O)CC(=O)N[C@@H](CCCNC(=N)N)C(=O)N[C@H](C(=O)N[C@@H](CCC(=O)O)C(=O)N[C@H](CC(=O)N[C@@H](CC(C)C)C(=O)N[C@@H](CCCNC(=N)N)C(=O)N[C@@H](CCCCN)C(=O)N[C@@H](CCCCN)CC(=O)N[C@@H](CC(C)C)C(=O)N[C@@H](CCC(N)=O)C(=O)N[C@@H](CC(=O)O)C(=O)N[C@H](CC(=O)N[C@@H](Cc1c[nH]cn1)C(=O)N[C@@H](CC(N)=O)C(=O)N[C@@H](Cc1ccccc1)C(N)=O)C(C)C)Cc1c[nH]c2ccccc12)C(C)C)CC(C)C [A5] | 54 ± 26 luminescence counts per second × 10−3 | 1.12 | 244 ± 32 luminescence counts per second × 10^−3 | EC50 (WT human PTHR-1): 1.66 nM
6 | 0.65 | CC[C@H](C)[C@H](NC(=O)[C@H]1CCC[C@@H]1NC(=O)[C@H](CCCCN)NC(=O)CNC(=O)[C@H](CCCCN)NC(=O)[C@H](CC(=O)O)NC(=O)[C@H](Cc1cnc[nH]1)NC(=O)[C@H](CC(C)C)NC(=O)[C@H]1CCC[C@@H]1NC(=O)[C@H](CCC(N)=O)NC(=O)[C@H]1CCC[C@@H]1NC(=O)[C@H](CCC(=O)O)NC(=O)[C@H](CO)NC(=O)[C@@H](NC(=O)[C@H]1CCC[C@@H]1N)C(C)C)C(=O)N[C@@H](CCC(N)=O)C(=O)N[C@@H](CC(=O)O)C(=O)N[C@H]1CCC[C@@H]1C(=O)N[C@@H](CCCNC(=N)N)C(=O)N[C@@H](CCCNC(=N)N)C(=O)N[C@@H](CCCNC(=N)N)C(=O)N[C@H]1CNC[C@@H]1C(=O)N[C@@H](CC(C)C)C(=O)N[C@@H](CC(C)C)C(=O)N[C@@H](CCC(=O)O)C(=O)N[C@H]1CNC[C@@H]1C(=O)N[C@@H](CC(C)C)C(=O)N[C@@H](CC(C)C)C(=O)NC(C)(C)C(=O)N[C@H]1CCC[C@@H]1C(=O)N[C@@H](CC(C)C)C(=O)N[C@@H](Cc1cnc[nH]1)C(=O)N[C@H](C(=O)N[C@H]1CCC[C@@H]1C(N)=O)[C@@H](C)O [CycD6 BA058 ACPC(1,5,7), XVSEXQXLHDKGKXIQDXRRRZLLEZLLUXLHTX-NH2] ({ACPC(1S,2S)}-VSE[X12]Q[X12]LHDKGK[X12]IQD[X12]RRR[X13]LLE[X13]LL[Aib][X12]LHT-{NH(1S,2S-2-CONH2-cPent)}) | – | – | – | –
